Source: the supplement of paper PMC10307832

How the values were obtained:
Assay in all cases: relative viability (nuclei count vs DMSO), 5 days (fraction); higher = more cells survive
[1] = compound: C[C@]12O[C@H](C[C@]1(O)CO)n1c3ccccc3c3c4c(c5c6ccccc6n2c5c31)CNC4=O [Lestaurtinib] + C[C@]1(O)C[C@@H](c2nc(-c3ccc4ccc(-c5ccccc5)nc4c3)c3c(N)nccn32)C1 [Linsitinib] (partner 1 µM)
Method in brief: (§1)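 Relative viability equals treated-well nuclei counts divided by vehicle-well nuclei counts. Counts came from 4× images of lung cancer cell lines grown in 1536-well plates for 5 days after pin-tool dosing on the day after seeding. Dosing used one drug alone or a fixed anchor-drug dose plus five library-drug doses (not always all listed) in √10 steps, and values are medians of duplicate plates.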

[2] = compound: C[C@]12O[C@H](C[C@]1(O)CO)n1c3ccccc3c3c4c(c5c6ccccc6n2c5c31)CNC4=O [Lestaurtinib] + CC1(C)CCC(c2ccc(Cl)cc2)=C(CN2CCN(c3ccc(C(=O)NS(=O)(=O)c4ccc(N[C@H](CCN5CCOCC5)CSc5ccccc5)c(S(=O)(=O)C(F)(F)F)c4)cc3)CC2)C1 [Navitoclax] (partner 0.5 µM)
Method in brief: as §1

[3] = compound: C1/C(=C\C2=CC=CS2)/C(=O)/C(=C/C3=CC=CS3)/C1 + CC(=O)c1c(C)c2cnc(Nc3ccc(N4CCNCC4)cn3)nc2n(C2CCCC2)c1=O [Palbociclib] (partner 0.5 µM)
Method in brief: as §1

[4] = compound: C1/C(=C\C2=CC=CS2)/C(=O)/C(=C/C3=CC=CS3)/C1 + CS(=O)(=O)N1CCN(Cc2cc3nc(-c4cccc5[nH]ncc45)nc(N4CCOCC4)c3s2)CC1 [Pictilisib] (partner 1 µM)
Method in brief: as §1

Row | Cell Line | relative viability ([1]; first compound 0.005 µM) | relative viability ([1]; first compound 0.01581 µM) | relative viability ([1]; first compound 0.05 µM) | relative viability ([1]; first compound 0.1581 µM) | relative viability ([1]; first compound 0.5 µM) | relative viability ([2]; first compound 0.005 µM) | relative viability ([2]; first compound 0.01581 µM) | relative viability ([2]; first compound 0.05 µM) | relative viability ([2]; first compound 0.1581 µM) | relative viability ([2]; first compound 0.5 µM) | relative viability ([3]; first compound 0.2 µM) | relative viability ([3]; first compound 0.6325 µM) | relative viability ([3]; first compound 2 µM) | relative viability ([3]; first compound 6.325 µM) | relative viability ([3]; first compound 20 µM) | relative viability ([4]; first compound 0.2 µM) | relative viability ([4]; first compound 0.6325 µM) | relative viability ([4]; first compound 2 µM) | relative viability ([4]; first compound 6.325 µM) | relative viability ([4]; first compound 20 µM)
1 | NCI-H1355 | 0.795 | 0.838 | 0.546 | 0.451 | 0.302 | 0.908 | 0.889 | 0.73 | 0.457 | 0.459 | 0.381 | 0.379 | 0.408 | 0.34 | 0.382 | 0.519 | 0.401 | 0.411 | 0.391 | 0.474
2 | EKVX | 1.03 | 1.13 | 0.949 | 1.08 | 0.552 | 1.03 | 0.889 | 0.965 | 0.929 | 0.45 | 0.383 | 0.388 | 0.367 | – | 0.409 | 0.44 | 0.431 | 0.415 | 0.34 | 0.467
3 | NCI-H441 | 0.446 | 0.547 | 0.182 | 0.339 | 0.27 | 0.48 | 0.575 | 0.571 | 0.448 | 0.313 | 0.242 | 0.217 | 0.234 | 0.197 | 0.25 | 0.523 | 0.418 | 0.541 | 0.489 | 0.523
4 | NCI-H1975 | 1.09 | 0.967 | 0.717 | 0.537 | 0.302 | 1.25 | 1.23 | 1.03 | 0.666 | 0.473 | 0.661 | 0.547 | 0.426 | 0.506 | 0.549 | 0.314 | 0.265 | 0.328 | 0.26 | 0.265
5 | HCC-78 | 0.53 | 0.419 | 0.413 | 0.225 | 0.234 | 0.897 | 0.906 | 0.533 | 0.333 | 0.211 | 0.486 | 0.457 | 0.534 | – | 0.451 | 0.197 | 0.216 | 0.288 | 0.216 | 0.209
6 | NCI-H2085 | 0.952 | 1.01 | 1.04 | 0.901 | 0.819 | 1.15 | 1.36 | 1.1 | 1.27 | 0.979 | 0.482 | 0.5 | 0.484 | 0.46 | 0.495 | 0.449 | 0.487 | 0.534 | 0.405 | 0.432
7 | H3255 | 0.986 | 1.07 | 0.864 | 0.668 | 0.457 | 0.44 | 0.437 | 0.327 | 0.279 | 0.182 | 0.325 | 0.33 | 0.324 | 0.308 | 0.297 | 0.545 | 0.452 | 0.467 | 0.405 | 0.506
8 | NCI-H2087 | 1 | 0.923 | 0.709 | 0.648 | 0.275 | 0.946 | 0.853 | 0.686 | 0.707 | 0.26 | 0.272 | 0.215 | 0.271 | 0.168 | 0.303 | 0.78 | 0.959 | 0.986 | 0.552 | 0.822
9 | LC-2-ad | 0.824 | 0.819 | 0.372 | 0.323 | 0.157 | 0.344 | 0.402 | 0.201 | 0.137 | 0.107 | 0.526 | 0.483 | 0.488 | 0.333 | 0.481 | 0.464 | 0.525 | 0.482 | 0.51 | 0.425
10 | PC-3 [JPC-3] | 1.02 | 0.954 | 0.951 | 0.87 | 1 | 0.84 | 0.788 | 0.763 | 0.65 | 0.55 | – | 0.587 | 0.5 | 0.43 | 0.523 | 0.65 | 0.765 | 0.798 | 0.629 | 0.719
11 | EBC-1 | 0.856 | 0.999 | 0.585 | 0.633 | 0.432 | 0.381 | 0.51 | 0.343 | 0.328 | 0.193 | – | – | – | – | – | 0.417 | 0.39 | 0.383 | 0.391 | 0.457
12 | HCC-15 | 0.98 | 0.958 | 0.71 | 0.529 | 0.159 | 0.786 | 0.883 | 0.668 | 0.653 | 0.467 | 0.721 | 0.734 | 0.824 | 0.682 | 0.73 | 0.776 | 0.748 | 0.843 | 0.642 | 0.758
13 | NCI-H1563 | 1.25 | 1.17 | 1.16 | 1.22 | 0.736 | – | – | – | – | – | – | – | – | – | – | 0.753 | 0.678 | 0.634 | 0.662 | 0.636
14 | COR-L 105 | 1.11 | 0.873 | 0.692 | 0.502 | 0.337 | 0.803 | 0.746 | 0.595 | 0.643 | 0.322 | 0.379 | 0.405 | 0.443 | 0.43 | 0.401 | 0.409 | 0.364 | 0.386 | 0.327 | 0.356
15 | NCI-H520 | 0.944 | 1.14 | 0.632 | 0.549 | 0.256 | 1.11 | 1.15 | 1.05 | 0.455 | 0.319 | 0.256 | 0.251 | 0.223 | – | 0.227 | 0.284 | 0.369 | 0.303 | 0.277 | 0.311
16 | LU99A | 0.46 | 0.443 | 0.3 | 0.284 | 0.21 | 0.707 | 0.72 | 0.373 | 0.378 | 0.211 | 0.402 | 0.395 | 0.481 | 0.368 | 0.38 | 0.345 | 0.403 | 0.303 | 0.276 | 0.353
17 | NCI-H1666 | 0.926 | 1.04 | 0.847 | 0.475 | 0.501 | 1.18 | 1.05 | 1.08 | 0.581 | 0.355 | 0.68 | 0.645 | 0.624 | 0.521 | 0.672 | 0.587 | 0.281 | 0.408 | 0.273 | 0.309
